Values of other authors, collected in patent publication JP2011132186A, “ホルモン不応性前立腺癌治療法及び治療効果予測方法” (University of Tokushima NUC, priority 2009, dated 2011).

System: hormone-refractory prostate cancer [ホルモン不応性前立腺癌]
Conditions: large phase III comparative trial in Europe and USA

## CC(=O)O[C@@]12CO[C@@H]1C[C@H](O)[C@@]1(C)C(=O)[C@H](O)C3=C(C)[C@@H](OC(=O)[C@H](O)[C@@H](NC(=O)OC(C)(C)C)c4ccccc4)C[C@@](O)([C@@H](OC(=O)c4ccccc4)[C@H]21)C3(C)C [ドセタキセル]
  median survival time (OS): 18.9 months

## O=C1c2c(O)ccc(O)c2C(=O)c2c(NCCNCCO)ccc(NCCNCCO)c21 [ミトキサントロン]
  median survival time (OS): 16.5 months
